One molecule from publication PMC6429214, “Design, Synthesis and Biological Evaluation of Isoxazole-Based CK1 Inhibitors Modified with Chiral Pyrrolidine Scaffolds” (Molecules, 2019) can be followed below.

Structures are written as SMILES.

One test concerns the target T1, human GST-CK1ε (Homo sapiens, UniProt P49674).
T1 construct: purchased Invitrogen PV3500
Nature of the test: in-vitro kinase assay CK1ε. It is filed as biochemical. To be noted: 10 µM ATP, mean ± SD, n = 3. The method, then:
(§1) In vitro kinase assays have been performed to both screen, as well as to calculate IC50 values of the compounds for CK1δ and ε. Each reaction was carried out using 2 μCi ^32P-γ-ATP in kinase buffer containing 25 mM Tris-HCl (pH = 7.5), 10 mM MgCl2, 100 µM EDTA, and 10 µM ATP. […] Recombinant human CK1δ transcription variant 1 (expressed and purified as GST fusion protein as described earlier) and human GST-CK1ε (PV3500; Invitrogen) were used as sources of enzyme, while α-casein (C6780; Sigma-Aldrich) was used as substrate. Kinase reactions were incubated for 30 min at 30 °C and then stopped with loading dye (50 mM Tris-HCl (pH = 6.8), 5% (v/v) β-mercaptoethanol (MSH), 10% (v/v) glycerol, 2% (w/v) sodium dodecyl sulfate (SDS), 0.1% (w/v) bromphenol blue). Subsequently, reactions were separated by sodium dodecyl sulfate polyacrylamide gel electrophoresis (SDS-PAGE) and phosphorylated protein bands were visualized on dried gels by autoradiography. The phosphorylated substrate protein bands were excised, and phosphorylation was quantified by Cherenkov counting. Dose-response analyses and calculation of IC50 values were carried out using GraphPad Prism 6 statistical software (San Diego, CA, USA).

Test [1] has as its target T2, human CK1δ transcription variant 1 (Homo sapiens, UniProt P48730).
T2 construct: made in house; own knowledge
Nature of the test: in-vitro kinase assay CK1δ. Conditions: 10 µM ATP, mean ± SD, n = 3. It is filed as biochemical.
Text: Human CK1δ transcription variant 1 (CK1δ TV1_NM_001893.4) has been amplified from the cDNA obtained from HT1080 cell line, using CK1δ_forward-primer: 5′-GGATCCATGGAGCTGAGAGTCGGGAACAG-3′ and CK1δ_reverse primer: 5′-GGATCCTCATCGGTGCACGACAGACTGA-3′. The CK1δ DNA construct was cloned into pSC-A cloning vector (Agilent technologies, Munich, Germany) with BamHI enzyme, to generate plasmids pGEX6-P3-GST-CK1δ TV1 (FP1417). Overexpression and purification of GST-CK1δ TV1 protein has been performed as described before.
as §1

The test system of another test is MCF-7 cells. Nature of the test: MTT cell viability assay MCF-7. It is filed as cell-based, human. Conditions: Homo sapiens, MCF7, 48 h, mean ± SD. The method, then: The human colon adenocarcinoma cell line HT-29 was grown in McCoy’s 5A medium, whereas MCF7 cells were grown in DMEM medium. All media were supplemented with 10% fetal calf serum (FCS), 100 units/mL penicillin, 100 µg/mL streptomycin and 2 mM glutamine. All cells were grown at 37 °C in a humidified 5% carbon dioxide atmosphere.
In order to analyze the effects of selected inhibitors on the cell viability of HT-29 and MCF7 cells, MTT assays were performed. 1 × 10^4 cells/well were seeded in 96-well cell culture plates. After 24 h cells were treated with increasing concentrations of the indicated inhibitor compounds, with untreated and DMSO-treated cells as control. After an incubation period of 48 h, 10 µL of MTT solution (5 mg/mL in PBS) were added and cells were incubated for 4 h. MTT-containing medium was carefully removed and 100 µL acidic isopropanol (0.04 N HCl in isopropanol) per well were added. To dissolve formazan crystals, plates were shaken for 30 min on an orbital shaker in the dark. Finally, dissolved crystals were measured spectrophotometrically at 570 nm. All experiments were performed in triplicate with four technical replicates per assay. Results were normalized considering the mean optical density value of control wells as 100%. GraphPad Prism 6 software (San Diego, CA, USA) was used to calculate EC50 values.

T1 sequence (P49674 whole entry): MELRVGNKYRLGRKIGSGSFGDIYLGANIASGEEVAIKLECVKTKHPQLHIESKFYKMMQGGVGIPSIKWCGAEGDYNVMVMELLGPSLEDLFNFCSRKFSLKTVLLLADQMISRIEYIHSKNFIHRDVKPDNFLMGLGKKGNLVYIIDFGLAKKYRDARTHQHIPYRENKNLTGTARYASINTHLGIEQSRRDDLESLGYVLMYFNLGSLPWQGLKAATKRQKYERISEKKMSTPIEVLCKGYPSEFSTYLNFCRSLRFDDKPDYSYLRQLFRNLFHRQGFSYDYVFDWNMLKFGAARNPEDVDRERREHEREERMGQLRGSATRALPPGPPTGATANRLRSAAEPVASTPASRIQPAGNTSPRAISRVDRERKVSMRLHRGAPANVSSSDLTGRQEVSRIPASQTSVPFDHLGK

Consider `COc1ccc(-c2cc(C(=O)Nc3cc(-c4c(-c5ccc(F)cc5)noc4C(C)C)ccn3)n(CC3NCC(O)C3O)c2)cc1` (centres unmarked) [29d], for which the values for the IC50 (on human GST-CK1ε; in test [1]) were 0.065 ± 0.012 µM and 0.038 ± 0.003 µM, respectively. Also, the remaining activity at 10 µM on human GST-CK1ε (10 µM compound, read-out: CK1ε Residual Activity [%] at 10 µM ± SD) was found to be 12 ± 2%; in test [1] (10 µM compound, read-out: CK1δ Residual Activity [%] at 10 µM ± SD), 2.9 ± 0.3%. The molecule further had a viability at 5 µM in the test on MCF-7 cells (5 µM) of 100 ± 16%. Moreover, the viability at 10 µM in the test with MCF-7 cells (10 µM) came to 76 ± 19%. The viability at 20 µM with MCF-7 cells (20 µM) came out at 5.6 ± 1.5%. Also, the midpoint of the response in the test on MCF-7 cells, the EC50, lay at 10000 ± 2000 nM.
